From patent publication US20060183119A1, “Method for determining predisposition to a physiological reaction in a patient” (UNIVERSITE LAVAL, priority 2002, published 2006) come the findings set out here.

Common to all, as to format: in vitro ADME
Set-up in all cases: key to Function (SN-38G formation versus *1 allele): High: no significant difference in activity compared to *1 allele.; Low: significantly lower SN-38G formation versus *1 allele

Series [1] concerns the target T1, UGT1A7*8 (Homo sapiens, UniProt Q9HAW7, E139D/N129K/R131K/W208R).
T1 construct: expressed in transfected cells
T1 sequence (Q9HAW7 26-530 N129K/R131K/E139D/W208R): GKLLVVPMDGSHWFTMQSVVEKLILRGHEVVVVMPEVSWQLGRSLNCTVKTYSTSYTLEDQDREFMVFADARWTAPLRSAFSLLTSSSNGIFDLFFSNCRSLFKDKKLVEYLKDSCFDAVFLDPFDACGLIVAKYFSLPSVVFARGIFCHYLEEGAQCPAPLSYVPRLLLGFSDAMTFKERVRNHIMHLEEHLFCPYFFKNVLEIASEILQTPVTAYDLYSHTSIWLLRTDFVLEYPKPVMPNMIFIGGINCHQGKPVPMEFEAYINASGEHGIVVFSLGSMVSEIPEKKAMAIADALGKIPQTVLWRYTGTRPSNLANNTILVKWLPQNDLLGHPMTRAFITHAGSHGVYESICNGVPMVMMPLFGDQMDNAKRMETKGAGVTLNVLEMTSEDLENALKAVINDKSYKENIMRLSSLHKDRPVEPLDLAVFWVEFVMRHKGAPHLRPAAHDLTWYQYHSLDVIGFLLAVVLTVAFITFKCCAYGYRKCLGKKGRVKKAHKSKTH
The series can be described thus: SN-38 glucuronidation by microsomes of HEK293 cells expressing UGT1A7*8. On the procedure:
(§1) Western blot analyses of UGT1A7 and UGT1A9 variants expressed in HEK293 cells were performed on microsomal proteins (10 μg) separated on a 10% SDS-polyacrylamide gel. After transferring the proteins, the membranes were probed with an anti-UGT1A RC-71 polyclonal antibody and with an anti-calnexin antibody. The relative levels of UGT1A9 (a) and UGT1A7 proteins (b) were determined by semi-quantitative densitometric analysis of the Enhanced chemiluminescence (ECL) image. The in vitro SN-38 activity was assessed using microsomal fractions prepared from HEK293 cells expressing the *1 and variant UGT1A9 (c) and UGT1A7 (d) alleles and incubated with 5 μM of SN-38 as described in Materials and Methods.
(§2) For the determination of Vmax and Km.

For series [2], the target named is T2, UGT1A7*1 (Homo sapiens, UniProt Q9HAW7).
T2 construct: expressed in transfected cells
T2 sequence (Q9HAW7 26-530): T1 sequence (Q9HAW7 26-530 N129K/R131K/E139D/W208R) with K104N, K106R, D114E, R183W
The series can be described thus: SN-38 glucuronidation by microsomes of HEK293 cells expressing UGT1A7*1. The method, then:
as §1, §2

Series [3] addresses T3, UGT1A7*4 (Homo sapiens, UniProt Q9HAW7, W208R).
T3 construct: expressed in transfected cells
T3 sequence (Q9HAW7 26-530 W208R): T1 sequence (Q9HAW7 26-530 N129K/R131K/E139D/W208R) with K104N, K106R, D114E
The series is described as follows: SN-38 glucuronidation by microsomes of HEK293 cells expressing UGT1A7*4. The method, then:
as §1, §2

For series [4], the target named is T4, UGT1A7*7 (Homo sapiens, UniProt Q9HAW7, E139D/N129K/R131K).
T4 construct: expressed in transfected cells
T4 sequence (Q9HAW7 26-530 N129K/R131K/E139D): T1 sequence (Q9HAW7 26-530 N129K/R131K/E139D/W208R) with R183W
The series is described as follows: SN-38 glucuronidation by microsomes of HEK293 cells expressing UGT1A7*7. The method, then:
as §1, §2

[5] abbreviates: range given for *5, *7 and *8 together.

Numbering of substitutions follows the chain as printed.

`CCc1c2c(nc3ccc(O)cc13)-c1cc3c(c(=O)n1C2)COC(=O)[C@]3(O)CC` [SN-38, 7-ethyl-10-hydroxycamptothecin]: the “SN-38 glucuronidating activity of the allele (in words)” value was “low” in series [1], “highest” in series [2] and “low” in series [3]. Moreover, the “Function (SN-38G formation versus *1 allele)” value in series [1] (in vitro experiments) is given as “Low”; in series [2] (in vitro experiments), “High”; in series [3] (in vitro experiments), “Low”; in series [4] (in vitro experiments) it was “High”. Also, the “lower rates of SN-38G formation compared to UGT1A7*1” value in series [1] (setting [5]) and in series [4] (setting [5]) was 38-76% in each case.
